Consider one compound from patent US20150374767A1, “Treatment of Cancer” (priority 2013, published 2015).

Test [1] deals with human gastric carcinoma xenograft. As to the kind of experiment: patient-derived human gastric carcinoma xenograft model. The arrangement: species or system mice. Particulars: mouse, in vivo. The method, then: HSV1716 (Seprehvir) was used in a personalised oncology study. Patient-derived tumour samples were obtained from a gastric carcinoma. There have been no previous in vitro or in vivo pre-clinical studies with Seprehvir in human gastric carcinoma cells/xenografts. Seprehvir was stored at −70° C., and multiple vials were provided to avoid repeated freeze/thawing.
Two groups of 3 mice with gastric carcinoma implants were treated with 2×10^6 pfu Seprehvir by either intratumoural (IT) or intravenous (IV) routes of administration. Control mice (n=3) received no treatment and in these mice the implants grew rapidly and all were sacrificed within 18 days (FIG. 61). For IV injection, Seprehvir was administered on days 0, 3, 10 and 18, at which point the tumors were too large and the mice were sacrificed.
For IT injection of Seprehvir, 2×10^6 pfu was administered on days 0, 3, 10, 18, 21 and 25.
. Control mice (n=3) received no treatment and in these mice the implants grew rapidly and all were sacrificed within 18 days (FIG. 62). […]. A follow-on study with HSV1716 administering more frequent by IV dosing at the higher concentration of 10^7 pfu was performed using the same human gastric carcinoma xenograft model. […].
Groups of 3 mice received IV injection of HSV1716 at 1×10^7 pfu on days 1, 3, 5, 8, 10, 12, 15, 17 and 19. […]

In test [2] the test system is cells expressing low levels of EGFR or ErbB2. Conditions: read-out: IC50, cells expressing low levels of EGFR or ErbB2; cited from earlier work.
Another test concerns U87. Type of test: cell-based, human.
The subject of a further test is A431. The test is classed as cell-based, human.
The next test deals with Virttu cell panel. As to the kind of experiment: combination with HSV1716, DCP cell death, Chou-Talalay analysis, cell panel. The test is classed as cell-based, human. Conditions: drug + HSV1716 moi 0.5 and 0.05, cell death by DCP after 72 hours.
For the next test, the system named is UVW. The test is classed as cell-based, human.
A further test deals with Virttu cell line panel. In words: cells. Type of test: cell-based. Conditions: Homo sapiens, A-431, 72 h, read-out: IC50 (DCP leakage), range.
The test system of test [3] is A431 cells. Particulars: read-out: IC50 in A431 cells, previously reported; cited from earlier work.
In test [4] the test system is EGFR- or ErbB2-overexpressing cells. Conditions: read-out: IC50, growth of EGFR- or ErbB2-overexpressing cells; cited from earlier work.
For test [5], the system named is A431 cells. In words: cells. Particulars: Homo sapiens, A-431, 72 h, read-out: IC50 (DCP leakage).
Another test concerns Hep3B. The test is classed as cell-based, human.

Read-outs that look alike come from different tables or passages of the source.

As a reminder, the IC50 is the concentration at which inhibition is half-maximal. `CS(=O)(=O)CCNCc1ccc(-c2ccc3ncnc(Nc4ccc(OCc5cccc(F)c5)c(Cl)c4)c3c2)o1` [Lapatinib, N-[3-chloro-4-[(3-fluorophenyl)methoxy]phenyl]-6-[5-[(2-methylsulfonylethylamino)methyl]-2-furyl]quinazolin-4-amine]: in test [1], the tumour growth inhibition entry is recorded as “some tumour growth inhibition until day 6”. In addition, the IC50 in test [2] was 3000 to 12000 nM; in the test on Virttu cell line panel it was 4000 to 30000 nM; in the test with A431 cells [3], 160 nM; in [4], 90 to 210 nM; in the test on A431 cells [5] it was 150 nM. In addition, the “number of synergistic combinations out of 8” value was 2/8 in the test with U87 and 1/8 in the test with A431. Besides, the “synergy/antagonism with HSV1716 on cell death (Chou-Talalay)” value in the test with U87 is on record as “some synergy”; in the test with A431, “some synergy”; in the test with UVW, “strongly synergistic”; with Hep3B it was “strongly synergistic”. The “number of cell lines tested in which antagonism was detected” value with Virttu cell panel was 8 of the 10.
